Where two headings read alike, the source gives them in different places.
Assays:
[1] = Cytotoxicity in HCV replicon assay (ΔCt rRNA); format: cell-based; conditions: human, HCV Replicon (Huh7)
Procedure: (§1) Huh 7 Clone B cells containing HCV Replicon RNA were seeded in a 96-well plate at 5000 cells/well, and the compounds tested at 10 μM in triplicate immediately after seeding. Following five days incubation (37° C., 5% CO2), total cellular RNA was isolated using the versaGene RNA purification kit from Gentra. Replicon RNA and an internal control (TaqMan rRNA control reagents, Applied Biosystems) were amplified in a single step multiplex Real Time RT-PCR Assay. The antiviral effectiveness of the compounds was calculated by subtracting the threshold RT-PCR cycle of the test compound from the threshold RT-PCR cycle of the no-drug control (ΔCt HCV). A ΔCt of 3.3 equals a 1-log reduction (equal to 90% less starting material) in Replicon RNA levels. The cytotoxicity of the compounds was also calculated using the ΔCt rRNA values. (2′-C-Me-C) was used as the control. To determine EC90 and IC50 values^2, ΔCt: values were first converted into a fraction of the starting material,^3 and then were used to calculate the % inhibition. The data on three compounds (Compound 12, Compound 8a, and compound 8b-up) is shown below in Table 3.

[2] = system: HCV Replicon RNA in Huh 7 Clone B cells; assay: HCV replicon assay; format: cell-based; conditions: Hepatitis C virus
Procedure: as §1

Huh7 cells = assay: Cellular pharmacology in Huh7 cells (LC/MS of nucleotides formed); format: in vitro ADME; conditions: 50 μM, 4 hr
Procedure: Similar to the method outlined for HepG2 cellular pharmacology, compounds are incubated in Huh-7 cells for 4 hr at the concentration of 50 μM in triplicate. […] Ice-cold 70% methanol can be used as the extraction solvent. ddATP (10 nM) can be used as the internal standard.

[3] = system: MtDNA, HepG2 Hepatoma cells; assay: Mitochondrial toxicity in HepG2 cells: mitochondrial DNA content; format: cell-based
Text: A real-time PCR assay to accurately quantify mitochondrial DNA content has been developed (see Stuyver L J, Lostia S, Adams M, Mathew J S, Pai B S, Grier J, Tharnish P M, Choi Y, Chong Y, Choo H, Chu C K, Otto M J, Schinazi R F. Antiviral activities and cellular toxicities of modified 2′,3′-dideoxy-2′,3′-didehydrocytidine analogs. Antimicrob. Agents Chemother. 2002; 46: 3854-60). This assay was used in all studies described in this application that determine the effect of nucleoside analogs on mitochondrial DNA content. In this assay, low-passage-number HepG2 cells were seeded at 5,000 cells/well in collagen-coated 96-well plates. Nucleoside monophosphate analogs were added to the medium to obtain final concentrations of 0 μM, 0.1 μM, 10 μM and 100 μM. On culture day 7, cellular nucleic acids were prepared by using commercially available columns (RNeasy 96 kit; Qiagen). […] The mitochondrial cytochrome c oxidase subunit II (COXII) gene and the β-actin or rRNA gene were amplified from 5 μl of the eluted nucleic acids using a multiplex Q-PCR protocol with suitable primers and probes for both target and reference amplifications. For COXII the following sense, probe and antisense primers are used, respectively: 5′-[…]-3′,5′-tetrachloro-6-carboxyfluorescein-[…]-TAMRA-3′ and 5′-[…]-3′. For exon 3 of the β-actin gene (GenBank accession number E01094) the sense, probe, and antisense primers are 5′-[…]-3′,5′-6-[…]-3′ and 5′-[…]-3′, respectively. The primers and probes for the rRNA gene are commercially available from Applied Biosystems. Since equal amplification efficiencies were obtained for all genes, the comparative CT method was used to investigate potential inhibition of mitochondrial DNA synthesis. The comparative CT method uses arithmetic formulas in which the amount of target (COXII gene) is normalized to the amount of an endogenous reference (the β-actin or rRNA gene) and is relative to a calibrator (a control with no drug at day 7). The arithmetic formula for this approach is given by 2-ΔΔCT, where ΔΔCT is (CT for average target test sample−CT for target control)−(CT for average reference test−CT for reference control) (see Johnson M R, K Wang, J B Smith, M J Heslin, R B Diasio. Quantitation of dihydropyrimidine dehydrogenase expression by real-time reverse transcription polymerase chain reaction. Anal. Biochem. 2000; 278:175-184). A decrease in mitochondrial DNA content in cells grown in the presence of drug would indicate mitochondrial toxicity.
(§2) The effect of compounds 8b-up, 12, and 8a on nuclear or mitochondrial DNA, or lactic acid production, in HepG2 Hepatoma cells was analyzed over a 14 day period. The procedure outlined in section (i) above was used for this analysis.

PBM cells = assay: Cellular pharmacology in PBM cells (LC-MS/MS of intracellular metabolites); format: in vitro ADME; conditions: 50 μM, 4 h, 37° C.
Procedure: Test compounds are incubated in PBM cells at 50 μM for 4 h at 37° C. Then the drug containing media is removed and the PBM cells are washed twice with PBS to remove extracellular drugs. The intracellular drugs are extracted from 10×10^6 PBM cells using 1 mL 70% ice-cold methanol (containing 10 nM of the internal standard ddATP). Following precipitation, the samples are maintained at room temperature for 15 min followed by vortexing for 30 sec, and then stored 12 h at −20° C. The supernatant is then evaporated to dryness. Dry samples would be stored at −20° C. until LC-MS/MS analysis. Prior to analysis, each sample is reconstituted in 100 μL mobile phase A, and centrifuged at 20,000 g to remove insoluble particulates.
Gradient separation is performed on a Hypersil GOLD column (100×1.0 mm, 3 μm particle size; Thermo Scientific, Waltham, Mass., USA). Mobile phase A consists of 2 mM ammonium phosphate and 3 mM hexylamine. Acetonitrile is increased from 10 to 80% in 15 min, and kept at 80% for 3 min. Equilibration at 10% acetonitrile lasts 15 min. The total run time is 33 min. The flow rate is maintained at 50 μL/min and a 10 μL injection is used. The autosampler and the column compartment are typically maintained at 4.5 and 30° C., respectively.
The first 3.5 min of the analysis is diverted to waste. The mass spectrometer is operated in positive ionization mode with a spray voltage of 3.2 kV.

[4] = system: nuclear DNA, HepG2 Hepatoma cells; assay: Mitochondrial toxicity in HepG2 cells: nuclear DNA content; format: cell-based
Procedure: This assay was used in all studies described in this application that determine the effect of nucleoside analogs on mitochondrial DNA content. In this assay, low-passage-number HepG2 cells were seeded at 5,000 cells/well in collagen-coated 96-well plates. […] On culture day 7, cellular nucleic acids were prepared by using commercially available columns (RNeasy 96 kit; Qiagen). […] The mitochondrial cytochrome c oxidase subunit II (COXII) gene and the β-actin or rRNA gene were amplified from 5 μl of the eluted nucleic acids using a multiplex Q-PCR protocol with suitable primers and probes for both target and reference amplifications. […] For exon 3 of the β-actin gene (GenBank accession number E01094) the sense, probe, and antisense primers are 5′-[…]-3′,5′-6-[…]-3′ and 5′-[…]-3′, respectively. The primers and probes for the rRNA gene are commercially available from Applied Biosystems. […] The comparative CT method uses arithmetic formulas in which the amount of target (COXII gene) is normalized to the amount of an endogenous reference (the β-actin or rRNA gene) and is relative to a calibrator (a control with no drug at day 7). The arithmetic formula for this approach is given by 2-ΔΔCT, where ΔΔCT is (CT for average target test sample−CT for target control)−(CT for average reference test−CT for reference control) (see Johnson M R, K Wang, J B Smith, M J Heslin, R B Diasio. Quantitation of dihydropyrimidine dehydrogenase expression by real-time reverse transcription polymerase chain reaction. Anal. Biochem. 2000; 278:175-184). A decrease in mitochondrial DNA content in cells grown in the presence of drug would indicate mitochondrial toxicity.
as §2

[5] = Huh 7 Clone B cells containing HCV replicon RNA
[6] = Huh-7, 120 h, HCV Replicon (Huh7), five days incubation, read-out: EC50
[7] = 1 μM, HepG2 Hepatoma cells, 14 day assay
[8] = 10 μM, HepG2 Hepatoma cells, 14 day assay
[9] = 50 μM, HepG2 Hepatoma cells, 14 day assay

CCOC(=O)CCc1ccccc1OP(=O)(N[C@@H](C)C(=O)OCC)OC[C@H]1O[C@@H](n2cnc3c(N)nc(N)nc32)C(C)(F)C1O (stereo partly drawn)
CC50 at 5 day [1]: > 10 µM | EC50 ([2]; Huh-7, 120 h): 0.7 µM | EC90 ([2]; Huh-7, 120 h): 2.9 µM

CC(C)OC(=O)CCNC(=O)[C@@H]1OP(=O)(OC[C@H]2O[C@@H](n3cnc4c(N)nc(N)nc43)C(C)(O)C2O)OCC1(C)C (stereo partly drawn)
CC50 at 5 day [1, 5]: > 10 µM | EC50 [2, 6]: > 10 µM | EC50 ([2]; Huh-7, HCV Replicon (Huh7), second line printed as EC50 in the entry, read-out: EC50): > 10 µM

CCOC(=O)CCc1ccccc1O[P@@](=O)(N[C@@H](C)C(=O)OCC)OC[C@H]1O[C@@H](n2cnc3c(N)nc(N)nc32)C(C)(O)C1O (stereo partly drawn)
CC50 at 5 day [1]: > 10 µM | EC50 ([2]; Huh-7, 120 h): 0.2 µM | EC90 ([2]; Huh-7, 120 h): 0.7 µM

CCOC(=O)CCc1ccccc1O[P@](=O)(N[C@@H](C)C(=O)OCC)OC[C@H]1O[C@@H](n2cnc3c(N)nc(N)nc32)C(C)(O)C1O (stereo partly drawn)
CC50 at 5 day [1]: > 3 µM | EC50 ([2]; Huh-7, 120 h): 2.3 µM | EC90 ([2]; Huh-7, 120 h): 7.7 µM

CCOC(=O)[C@H](C)NP(=O)(OCC1O[C@@H](n2cnc3c(N)nc(N)nc32)C(C)(O)C1O)Oc1ccccc1 (stereo in doubt) [Compound 8a, (2S)-ethyl 2-((((2S,3R,4R,5R)-5-(2,6-diamino-9H-purin-9-yl)-3,4-dihydroxy-4-methyltetrahydrofuran-2-yl)methoxy)(phenoxy)phosphorylamino)propanoate]
intracellular guanine analog triphosphate (Huh7 cells): also detected | intracellular level of 2,6-diamino-2′-C-Me purine triphosphate (Huh7 cells): unexpectedly high levels | effect on nuclear or mitochondrial DNA or lactic acid production ([3]; up to 50 μM, HepG2 Hepatoma cells, 14 day assay, summary also covers nuclear DNA and lactic acid): no significant effect

CC1(O)C(O)[C@@H](CO)O[C@H]1n1cnc2c(N)nc(N)nc21 (stereo partly drawn) [Compound 12, 2,6-diamino-2′-C-Me purine nucleoside]
intracellular guanine analog triphosphate (Huh7 cells): major triphosphate detected | intracellular level of 2,6-diamino-2′-C-Me purine triphosphate (Huh7 cells): extremely low levels

Nc1nc(N)c2ncn([C@H]3CO[C@@H](CO)O3)c2n1 [DAPD]
intracellular level of DAPD (PBM cells): Low levels | intracellular level of DAPD-TP / phosphorylated forms of DAPD (PBM cells): no phosphorylated forms of DAPD were detected | intracellular level of DXG-TP (PBM cells): high levels

CCOC(=O)[C@H](C)NP(=O)(OC[C@@H]1OC[C@H](n2cnc3c(N)nc(N)nc32)O1)Oc1ccccc1 (stereo partly drawn) [RS-864]
intracellular level of DAPD (PBM cells): low levels | intracellular level of DAPD-TP / phosphorylated forms of DAPD (PBM cells): very high levels | intracellular level of DXG-TP (PBM cells): low levels | ratio of DXG-TP (6-OH) to DAPD-TP (6-NH2) (PBM cells; LC/MS/MS): 2 to 98

CCOC(=O)CCc1ccccc1OP(=O)(N[C@H](C)C(=O)OCC)OC[C@H]1O[C@@H](n2cnc3c(N)nc(N)nc32)C(C)(O)C1O (stereo partly drawn) [drawing 49]
% Inhibition nuclear DNA [4, 7]: 30% | % Inhibition nuclear DNA [4, 8]: 16% | % Inhibition nuclear DNA [4, 9]: 10% | % Inhibition MtDNA [3, 7]: 24% | % Inhibition MtDNA [3, 8]: 34% | % Inhibition MtDNA [3, 9]: 43%

CC1(O)C(O)[C@@H](CO)O[C@H]1n1cnc2c(N)nc(N)nc21 (stereo partly drawn) [drawing 50]
% Inhibition nuclear DNA ([4]; human, 14 day, 1 μM): 22% | % Inhibition nuclear DNA ([4]; human, 14 day, 10 μM): 46% | % Inhibition nuclear DNA ([4]; human, 14 day, 50 μM): 21% | % Inhibition MtDNA ([3]; human, 14 day, 1 μM): < 1% | % Inhibition MtDNA ([3]; human, 14 day, 10 μM): < 1% | % Inhibition MtDNA ([3]; human, 14 day, 50 μM): < 1%

CCOC(=O)[C@H](C)NP(=O)(OC[C@H]1O[C@@H](n2cnc3c(N)nc(N)nc32)C(C)(O)C1O)Oc1ccccc1 (stereo partly drawn) [drawing 51]
% Inhibition nuclear DNA [4, 7]: 4.0% | % Inhibition nuclear DNA [4, 8]: 20% | % Inhibition nuclear DNA [4, 9]: < 1% | % Inhibition MtDNA [3, 7]: < 1% | % Inhibition MtDNA [3, 8]: 5.4% | % Inhibition MtDNA [3, 9]: < 1%

CC1(O)C(O)[C@@H](CO)O[C@H]1n1cnc2c(N)nc(N)nc21 (stereo partly drawn) [drawing 55]
CC50 at 5 day [1, 5]: > 10 µM | EC50 [2, 6]: 3.7 µM | EC90 ([2]; Huh-7, 120 h, HCV Replicon (Huh7), five days incubation, read-out: EC90): 11 µM

CCOC(=O)[C@H](C)NP(=O)(OC[C@H]1O[C@@H](n2cnc3c(N)nc(N)nc32)C(C)(O)C1O)Oc1ccccc1 (stereo partly drawn) [drawing 56]
CC50 at 5 day [1]: > 10 µM | EC50 ([2]; Huh-7, 120 h): 1.3 µM | EC90 ([2]; Huh-7, 120 h): 4.9 µM

From patent US20140212382A1, “PURINE MONOPHOSPHATE PRODRUGS FOR TREATMENT OF VIRAL INFECTIONS” (EMORY UNIVERSITY, priority 2011, published 2014)
